Read-outs that look alike come from different tables or passages of the source. Starred links: 1 amine or outer side, 2 acyl side, 3 side chain; linkers in the order of their positions; H or OH if unused. Non-standard residues stand in square brackets, D forms with d. Groups on a side chain read outwards from the residue. *: point of attachment. C20 diacid = O=C(O)CCCCCCCCCCCCCCCCCCC(=O)*; C18 diacid = O=C(O)CCCCCCCCCCCCCCCCC(=O)*; γGlu = O=C(O)[C@H](CCC(=O)[*:2])N[*:1]; αMe4Pal = C[C@](N)(Cc1ccncc1)C(=O)O; αMeY = C[C@](N)(Cc1ccc(O)cc1)C(=O)O; Hyp = O=C(O)[C@@H]1C[C@@H](O)CN1; 4Pal = N[C@@H](Cc1ccncc1)C(=O)O; αMeL = CC(C)C[C@](C)(N)C(=O)O; Orn = NCCC[C@H](N)C(=O)O; AEEA = NCCOCCOCC(=O)O; Aib = CC(C)(N)C(=O)O
How the values were obtained:
Format in all cases: cell-based
hGIPR [1] = molecular target: T1, hGIPR (Homo sapiens, UniProt P48546); experiment: Functional cAMP activation in the presence of 0.1% casein (no HSA); details: read-out: Relative cAMP EC50, hGIPR;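 also: intracellular cAMP rise after 30 min at 37 °C read by HTRF against a standard curve, scaled between buffer alone (0%) and top control ligand concentration (100%), four-parameter fit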
T1 sequence (P48546 22-466): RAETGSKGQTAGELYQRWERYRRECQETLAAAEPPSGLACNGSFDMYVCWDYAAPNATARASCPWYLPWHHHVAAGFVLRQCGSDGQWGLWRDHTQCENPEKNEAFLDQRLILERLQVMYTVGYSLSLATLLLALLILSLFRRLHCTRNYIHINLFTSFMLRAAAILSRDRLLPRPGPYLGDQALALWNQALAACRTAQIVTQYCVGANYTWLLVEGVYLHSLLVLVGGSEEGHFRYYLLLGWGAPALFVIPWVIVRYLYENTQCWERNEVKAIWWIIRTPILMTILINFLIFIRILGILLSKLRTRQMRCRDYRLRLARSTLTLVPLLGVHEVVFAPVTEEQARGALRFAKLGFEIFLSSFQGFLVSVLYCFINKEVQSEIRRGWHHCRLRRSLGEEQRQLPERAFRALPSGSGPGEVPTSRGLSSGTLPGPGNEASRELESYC

hGLP-1R [2] = molecular target: T2, hGLP-1R (Homo sapiens, UniProt P43220); experiment: as above; details: read-out: Relative cAMP EC50, hGLP-1R;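 also: intracellular cAMP rise after 30 min at 37 °C read by HTRF, normalized between buffer only (0%) and maximal control ligand (100%), four-parameter variable-slope fit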
T2 sequence (P43220 24-463): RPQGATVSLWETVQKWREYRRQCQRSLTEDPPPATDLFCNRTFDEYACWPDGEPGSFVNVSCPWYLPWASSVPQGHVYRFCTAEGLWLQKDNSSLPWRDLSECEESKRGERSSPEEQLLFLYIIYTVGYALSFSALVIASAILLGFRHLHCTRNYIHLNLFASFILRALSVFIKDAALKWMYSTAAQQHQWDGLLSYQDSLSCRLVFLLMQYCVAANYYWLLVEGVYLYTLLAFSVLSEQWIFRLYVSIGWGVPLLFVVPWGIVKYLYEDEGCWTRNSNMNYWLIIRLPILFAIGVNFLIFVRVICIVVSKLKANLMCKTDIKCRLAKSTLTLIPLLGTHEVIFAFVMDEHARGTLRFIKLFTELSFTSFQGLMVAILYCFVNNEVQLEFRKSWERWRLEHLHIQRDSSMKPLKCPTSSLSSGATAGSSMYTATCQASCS

hGLP-1R [3] = molecular target: T2, hGLP-1R; experiment: Functional cAMP activity in the presence of 1% HSA; details: read-out: cAMP Rel EC50, hGLP-1R
hGIPR [4] = molecular target: T1, hGIPR; experiment: Functional cAMP activity in the presence of 1% HSA; details: read-out: cAMP Rel EC50, hGIPR
human GcgR = human GcgR (Homo sapiens, UniProt P47871); experiment: Functional cAMP activity in the presence of 1% HSA; details: read-out: cAMP Rel EC50, hGcgR
Sequence of human GcgR (P47871 26-477): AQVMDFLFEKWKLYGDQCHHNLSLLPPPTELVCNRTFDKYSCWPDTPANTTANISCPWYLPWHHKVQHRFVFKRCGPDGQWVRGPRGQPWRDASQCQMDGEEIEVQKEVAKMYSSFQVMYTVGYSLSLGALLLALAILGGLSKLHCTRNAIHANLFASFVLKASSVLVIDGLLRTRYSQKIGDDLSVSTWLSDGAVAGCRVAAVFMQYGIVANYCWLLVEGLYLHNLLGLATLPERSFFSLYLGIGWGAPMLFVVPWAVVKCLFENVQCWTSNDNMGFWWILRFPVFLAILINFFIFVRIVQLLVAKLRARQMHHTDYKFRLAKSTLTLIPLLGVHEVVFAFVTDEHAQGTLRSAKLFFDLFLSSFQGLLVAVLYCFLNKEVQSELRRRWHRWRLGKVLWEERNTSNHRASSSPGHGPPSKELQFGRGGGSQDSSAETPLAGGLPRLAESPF

hGcgR = hGcgR (Homo sapiens, UniProt P47871); experiment: Functional cAMP activation in the presence of 0.1% casein (no HSA); details: read-out: Relative cAMP EC50, hGcgR;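 also: intracellular cAMP rise after 30 min at 37 °C, read by HTRF against a cAMP standard curve, scaled from buffer only (0%) to maximal control ligand response (100%)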
Sequence of hGcgR (P47871 26-477): as above

[5] = in the presence of 0.1% casein (no HSA), geometric mean

Row | Substance | EC50 (hGIPR [1]; [5]) | EC50 (hGLP-1R [2]; [5]) | EC50 (hGLP-1R [3]) | EC50 (hGIPR [4]) | EC50 (human GcgR) | EC50 (hGcgR; [5]) | EC50 (hGIPR [1]) | EC50 (hGLP-1R [2]) | EC50 (hGcgR)
1 | H-Y[Aib]QGTFTSDFS[Orn][αMeL]LDKK([AEEA-γGlu-C18 diacid])AQ[Aib]AFIEYLLEGGPSSGAPP[Hyp]GGS-NH2 [Example 237] | 0.228 nM | 3.4 nM | 291 nM | 30.9 nM | 441 nM | 3.77 nM |  |  | 
2 | H-Y[Aib]QGTFTSDFS[Orn][αMeL]LDKK([AEEA-γGlu-C18 diacid])AQ[Aib]AFIEYLLEGGPSSGAP[Hyp]PGGS-NH2 [Example 236] | 0.309 nM | 3.33 nM | 261 nM | 24.8 nM | 309 nM | 2.23 nM |  |  | 
3 | H-Y[Aib]QGTFTSDFS[Orn][αMeL]LDKK([AEEA-γGlu-C18 diacid])AQ[Aib]AFIEYLLEGGPSSGEPPPSGS-NH2 [Example 131] | 0.416 nM | 5.51 nM | 984 nM | 91.8 nM | 976 nM | 2.64 nM |  |  | 
4 | H-Y[Aib]QGTFTSDFS[Orn][αMeL]LDKK([AEEA-γGlu-C18 diacid])AQ[Aib]AFIEYLLEGG[Hyp]SSGAPPPGGS-NH2 [Example 234] | 0.322 nM | 4.72 nM | 604 nM | 31.1 nM | 702 nM | 7.87 nM |  |  | 
5 | H-Y[Aib]QGTFTSDFS[Orn][αMeL]LDKK([AEEA-γGlu-C18 diacid])AQ[Aib]AFIEYLLE[Aib]GESSGAPPPSGS-NH2 [Example 240] | 0.214 nM | 3.62 nM | 396 nM | 10.4 nM | 521 nM | 2.02 nM |  |  | 
6 | H-Y[Aib]QGTFTSDFS[Orn][αMeL]LDKK([AEEA-γGlu-C18 diacid])AQ[Aib]AFIEYLLE[Aib]GHSSGAPPPSGE-NH2 [Example 247] | 0.0794 nM | 2.8 nM | 291 nM | 12.9 nM | 443 nM | 1.76 nM |  |  | 
7 | H-Y[Aib]QGTFTSDFS[Orn][αMeL]LDKK([AEEA-γGlu-C18 diacid])AQ[Aib]AFIEYLLE[dA]GHSSGAPPPSGE-NH2 [Example 207] | 0.321 nM | 4.36 nM | 225 nM | 15.2 nM | 770 nM | 4.24 nM |  |  | 
8 | H-Y[Aib]QGTFTSDFS[Orn][αMeL]LDKK([AEEA-γGlu-C18 diacid])AQ[Aib]AFIE[4Pal]LLEGGPSSGAPPPGGS-NH2 [Example 496] |  |  | 1480 nM | 60.8 nM | 1500 nM |  | 0.387 nM | 9.69 nM | 8.25 nM
9 | H-Y[Aib]QGTFTSDFS[Orn][αMeL]LDKK([AEEA-γGlu-C18 diacid])AQ[Aib]AFIE[αMeY]LIEGGPSSGAPPPSGS-NH2 [Example 839] | 0.221 nM | 0.469 nM | 60.6 nM | 21.9 nM | 1110 nM | 5.05 nM |  |  | 
10 | H-Y[Aib]QGTFTSDFS[Orn][αMeL]LDKK([AEEA-γGlu-C18 diacid])AQ[Aib]QFIEYLLAGGPSSGAPPPEGS-NH2 [Example 96] | 0.456 nM | 3.92 nM | 836 nM | 49.3 nM | 2150 nM | 14.1 nM |  |  | 
11 | H-Y[Aib]QGTFTSDFS[Orn][αMeL]LDKK([AEEA-γGlu-C18 diacid])AQ[αMe4Pal]AFIEYLIE[Aib]GPSSGAPPPSGS-NH2 [Example 811] | 0.14 nM | 1.48 nM | 246 nM | 25.8 nM | 175 nM | 0.724 nM |  |  | 
12 | H-Y[Aib]QGTFTSDFS[Orn][αMeL]LDKK([AEEA-γGlu-C18 diacid])AQ[αMe4Pal]AFIE[αMeY]LIEGGPSSGAPPPSGS-NH2 [Example 845] | 0.178 nM | 0.161 nM | 89.1 nM | 23.3 nM | 203 nM | 0.626 nM |  |  | 
13 | H-Y[Aib]QGTFTSDFS[Orn][αMeL]LDKK([AEEA-γGlu-C18 diacid])AQ[αMe4Pal]DFIEYLIE[Aib]GPSSGAPPPSGS-NH2 [Example 880] | 0.116 nM | 7.69 nM | 943 nM | 76.2 nM | 562 nM | 3.53 nM |  |  | 
14 | H-Y[Aib]QGTFTSDFS[Orn][αMeL]LDKK([AEEA-γGlu-C18 diacid])AQ[αMe4Pal]EFIEYLIE[Aib]GPSSGAPPPSGS-NH2 [Example 879] | 0.169 nM | 4 nM | 591 nM | 20.1 nM | 329 nM | 2.16 nM |  |  | 
15 | H-Y[Aib]QGTFTSDFS[Orn][αMeL]LDKK([AEEA-γGlu-C20 diacid])AQ[Aib]AFIEWLLAGGPSSGEPPPSGE-NH2 [Example 103] | 0.2 nM | 3.27 nM | 482 nM | 35.1 nM | 2590 nM | 10.5 nM |  |  | 
16 | H-Y[Aib]QGTFTSDFS[Orn][αMeL]LDKK([AEEA-γGlu-C20 diacid])AQ[Aib]AFIEWLLEGGPSSGAPPPEGE-NH2 [Example 101] | 0.436 nM | 4.3 nM | 1090 nM | 133 nM | 2810 nM | 10 nM |  |  | 
17 | H-Y[Aib]QGTFTSDFS[Orn][αMeL]LDKK([AEEA-γGlu-C20 diacid])AQ[Aib]AFIEYLLAGGPSSGAPPPSEG-NH2 [Example 60] | 0.135 nM | 1.93 nM | 409 nM | 33 nM | 1210 nM | 8.96 nM |  |  | 
18 | H-Y[Aib]QGTFTSDFS[Orn][αMeL]LDKK([AEEA-γGlu-C20 diacid])AQ[Aib]AFIEYLLAGGPSSGAPPPSGD-NH2 [Example 81] | 0.246 nM | 2.19 nM | 430 nM | 50.2 nM | 1580 nM | 7.78 nM |  |  | 
19 | H-Y[Aib]QGTFTSDFS[Orn][αMeL]LDKK([AEEA-γGlu-C20 diacid])AQ[Aib]AFIEYLLAGGPSSGAPPPSGE-NH2 [Example 82] | 0.302 nM | 3.52 nM | 394 nM | 87.8 nM | 1070 nM | 6.98 nM |  |  | 
20 | H-Y[Aib]QGTFTSDFS[Orn][αMeL]LDKK([AEEA-γGlu-C20 diacid])AQ[Aib]AFIEYLLAGGPSSGAPPPSGS-NH2 [Example 76] | 0.196 nM | 2.25 nM | 436 nM | 45.5 nM | 2240 nM | 11.1 nM |  |  | 
21 | H-Y[Aib]QGTFTSDFS[Orn][αMeL]LDKK([AEEA-γGlu-C20 diacid])AQ[Aib]AFIEYLLAGGPSSGAPPPSGSE-NH2 [Example 84] | 0.21 nM | 1.61 nM | 701 nM | 57.4 nM | 2280 nM | 8.48 nM |  |  | 
22 | H-Y[Aib]QGTFTSDFS[Orn][αMeL]LDKK([AEEA-γGlu-C20 diacid])AQ[Aib]AFIEYLLAGGPSSGAPPPSGS[AEEA]-NH2 [Example 83] | 0.185 nM | 2.85 nM | 653 nM | 91.8 nM | 1270 nM | 10.2 nM |  |  | 
23 | H-Y[Aib]QGTFTSDFS[Orn][αMeL]LDKK([AEEA-γGlu-C20 diacid])AQ[Aib]AFIEYLLAGGPSSGEPPPEGE-NH2 [Example 102] | 0.587 nM | 3.35 nM | 1060 nM | 159 nM | 2710 nM | 9.75 nM |  |  | 
24 | H-Y[Aib]QGTFTSDFS[Orn][αMeL]LDKK([AEEA-γGlu-C20 diacid])AQ[Aib]AFIEYLLAGGPSSGEPPPSGS-NH2 [Example 92] | 0.212 nM | 2.08 nM | 735 nM | 62 nM | 2540 nM | 12 nM |  |  | 

— patent US20240270821A1, “GIP/GLP1/GCG TRI-RECEPTOR AGONISTS AND USES THEREOF” (priority 2023, published 2024)
